Here are results for one compound from article PMC9779727, “Identification of Novel Artemisinin Hybrids Induce Apoptosis and Ferroptosis in MCF-7 Cells” (International Journal of Molecular Sciences, 2022).

For one series, the system named is Bcl-2. In words: Western blotting, Bcl-2 expression. Format: cell-based, human. The following applies: MCF-7, 0, 2.5, 5 and 10 μM, 48 h, GAPDH internal control. The procedure:
(§1) Based on the JC-1 staining results, we further analyzed the expression of proteins related to apoptosis using a Western blotting assay with GAPDH as an internal control. […] Then, an excess of cytochrome C can enhance caspase-3 activation to stimulate apoptosis.
(§2) MCF-7 cells were seeded at a density of 4 × 10^5 cells per well and treated with various concentrations of compound A8 (0, 2.5, 5 and 10 μM) for 48 h. After this, cells were collected and washed twice with ice-cold DPBS. The pellets were resuspended in a total protein extraction buffer (20 mM HEPES, 350 mM NaCl, 20% glycerol, 1% NP-40, 1 mM MgCl2, 0.5 mM EDTA, 0.1 mM EGTA, 0.1 mM DTT, 0.1 mM PMSF) containing a protease inhibitor cocktail and incubated on ice for 30 min with intermittent mixing. The protein concentration was measured using the Bradford reagent (Bio-Rad Laboratories Inc., Hercules, CA, USA). An equal amount (20 μg) of protein was loaded on 10% polyacrylamide gels and transferred to a nitrocellulose membrane. After blocking with 5% skimmed milk, the membrane was incubated at 4 °C overnight with specific primary antibodies. The membrane was washed and incubated at room temperature for 1 h with secondary antibodies conjugated with horseradish peroxidase (HRP). Finally, the immunoblot was developed for visualization using a chemiluminescence kit. […]
For orientation: Immunoblotting shows a protein as a band on a membrane.

The test system of series [1] is MCF-7 cells. In words: JC-1 mitochondrial membrane potential assay. Format: cell-based, human. Conditions: 48 h, control 7.85%. The procedure:
JC-1 staining was also performed to explore the change in mitochondrial membrane potential (MMP), which could induce apoptosis.
MCF-7 cells were plated at 1 × 10^6 cells per well in 24-well plates and incubated with compound A8 at various concentrations (0, 2.5, 5 and 10 μM) for 48 h. Subsequently, the cells were incubated with JC-1 dye and finally analyzed by flow cytometry (Beckman Coulter cytoFLEX, USA).

The target of another series is T1, CYP2D6 (Homo sapiens, UniProt P10635).
T1 construct: from tissue; host or cells: human liver microsomes
The series can be described thus: CYPs inhibition assay, CYP2D6. Format: in vitro ADME. Conditions: human liver microsomes. The procedure:
(§3) Finally, we evaluated the interaction between the hybrid A8 and five major metabolic enzymes (CYP1A2, CYP2C9, CYP2C19, CYP2D6 and CYP3A4) in the human body. […] It is also one of the directions for our further transformation and optimization.
(§4) Cytochrome P450 inhibition was evaluated in human liver microsomes (0.253 mg/mL) using five […] (CYP1A2, α-Naphthoflavone; CYP2C9, Sulfaphenazole; CYP2C19, Benzylnirvanol; CYP2D6, Quinidine; and CYP3A4, Ketoconazole.) in the presence of compound A8 (10 μM). After preincubation for 10 min at 37 °C, an NADPH-regenerating system was added. After the mixed system was incubated for 15 min at 37 °C, the reaction was stopped by adding 400 μL of cold stop solution (200 ng/mL tolbutamide and 200 ng/mL labetalol in acetonitrile). Then, the mixture was centrifuged, and the supernatant was analyzed by LC-MS/MS.
(Microsomes from liver hold many membrane-bound enzymes, among them those of drug oxidation.)

Series [2] has as its system ovarian cancer SK-OV-3 cells. In words: MTT antiproliferation assay, SK-OV-3. Format: cell-based, human. The following applies: 48 h, means ± SD, n = 3. The source says:
(§5) The target hybrids A1–A15 were screened for their antiproliferation activities against five human cancer cell lines (lung cancer A549 cells, breast cancer MCF-7 and MDA-MB-231 cells, colon cancer HCT116 cells and ovarian cancer SK-OV-3 cells) in vitro by the standard MTT method, and 5-fluorouracil (5-FU) and ART were coassayed as controls. […] Therefore, the most promising hybrid, A8, was chosen for further exploration of the preliminary mechanism of MCF-7 cell antiproliferation.
(§6) Cytotoxicity of test compounds against five different tumor cell lines were evaluated using an MTT assay in vitro. Cells were seeded into 96-well plates at a density of 5 × 10^4 cells per well and stabilized at 37 °C with 5% CO2 for 24 h. Compounds A1–A15, ART and 5-FU were added to each well at various concentrations and then the cells were incubated for 48 h. The MTT solution (100 μL 0.5 mg/mL^−1) was added to each well, and the cells were incubated for another 4 h. Then, 150 μL DMSO was added to each well and the absorbance of samples was measured at 492 nm. The IC50 values were calculated according to Logit method after getting the inhibitory rate.

In series [3] the test system is MCF-7 cells. In words: GSH level detection. Format: cell-based, human. From the text:
(§7) We also determined the effect of A8 on the expression of GSH and MDA (lipid peroxidation).
(§8) Lipid peroxidation assay kit (Beyotime, Shanghai, China) was used to detect malonaldehyde (MDA), together with GSH level assay, present in samples, as per the manufacturer’s instruction with slight modifications.

The target of a further series is T2, CYP2C19 (Homo sapiens, UniProt P33261).
T2 construct: from tissue; host or cells: human liver microsomes
The series can be described thus: CYPs inhibition assay, CYP2C19. Conditions: human liver microsomes. The series is classed as in vitro ADME. The procedure:
as §3, §4

Series [4] deals with MCF-7 cells. In words: Lipid peroxidation (MDA) detection. Conditions: MCF-7. Format: cell-based, human.
Excerpt: as §7, §8

Series [5] concerns breast cancer MDA-MB-231 cells. The series can be described thus: MTT antiproliferation assay, MDA-MB-231. Conditions: 48 h, means ± SD, n = 3. The series is classed as cell-based, human.
Excerpt: as §5, §6
In general terms: Formazan colour is commonly taken as a measure of viable cells.

For series [6], the system named is colon cancer HCT116 cells. In words: MTT antiproliferation assay, HCT116. Format: cell-based, human. Conditions: 48 h, means ± SD, n = 3.
Excerpt: as §5, §6

In series [7] the test system is MCF-7 cells. The series can be described thus: Cell colony formation assay. The series is classed as cell-based, human. The following applies: 12 d. How it is done: We chose a cell colony formation assay to determine the antiproliferative effect of the compound more intuitively.
MCF-7 cells were seeded into 6-well plates at 37 °C with 5% CO2 for 24 h and then treated with compound A8 at various concentrations (0, 2.5, 5 and 10 μM), ART (10 μM) and 5-FU (10 μM) for 12 d. Then, cells were stained with Giemsa and clones number were counted directly with naked eyes.

A further series deals with T3, CYP3A4 (Homo sapiens, UniProt P08684).
T3 construct: from tissue; host or cells: human liver microsomes
In words: CYPs inhibition assay, CYP3A4. The series is classed as in vitro ADME. The procedure:
as §3, §4

Series [8] relates to breast cancer MCF-7 cells. In words: MTT antiproliferation assay, MCF-7. Format: cell-based, human. The following applies: 48 h, means ± SD, n = 3.
Excerpt: as §5, §6

For the next series, the system named is lung cancer A549 cells. In words: MTT antiproliferation assay, A549. Format: cell-based, human. Conditions: 48 h, means ± SD, n = 3.
Excerpt: as §5, §6

The next series relates to Bax. In words: Western blotting, Bax expression. The series is classed as cell-based, human. Conditions: MCF-7, 0, 2.5, 5 and 10 μM, 48 h, GAPDH internal control. How it is done:
as §1, §2

T3 sequence (P08684 whole entry): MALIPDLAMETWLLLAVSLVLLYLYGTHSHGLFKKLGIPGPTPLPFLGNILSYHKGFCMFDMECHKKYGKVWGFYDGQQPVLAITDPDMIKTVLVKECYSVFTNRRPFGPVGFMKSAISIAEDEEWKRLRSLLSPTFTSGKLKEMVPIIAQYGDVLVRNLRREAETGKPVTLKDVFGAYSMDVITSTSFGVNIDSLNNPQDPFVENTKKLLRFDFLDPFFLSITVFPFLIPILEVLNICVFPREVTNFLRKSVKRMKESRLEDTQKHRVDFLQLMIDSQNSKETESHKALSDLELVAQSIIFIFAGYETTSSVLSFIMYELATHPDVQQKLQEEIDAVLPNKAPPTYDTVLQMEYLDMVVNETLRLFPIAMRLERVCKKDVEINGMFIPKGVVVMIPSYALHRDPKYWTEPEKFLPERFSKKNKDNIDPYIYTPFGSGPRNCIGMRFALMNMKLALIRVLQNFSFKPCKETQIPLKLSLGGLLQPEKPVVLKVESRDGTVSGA
T1 sequence (P10635 whole entry): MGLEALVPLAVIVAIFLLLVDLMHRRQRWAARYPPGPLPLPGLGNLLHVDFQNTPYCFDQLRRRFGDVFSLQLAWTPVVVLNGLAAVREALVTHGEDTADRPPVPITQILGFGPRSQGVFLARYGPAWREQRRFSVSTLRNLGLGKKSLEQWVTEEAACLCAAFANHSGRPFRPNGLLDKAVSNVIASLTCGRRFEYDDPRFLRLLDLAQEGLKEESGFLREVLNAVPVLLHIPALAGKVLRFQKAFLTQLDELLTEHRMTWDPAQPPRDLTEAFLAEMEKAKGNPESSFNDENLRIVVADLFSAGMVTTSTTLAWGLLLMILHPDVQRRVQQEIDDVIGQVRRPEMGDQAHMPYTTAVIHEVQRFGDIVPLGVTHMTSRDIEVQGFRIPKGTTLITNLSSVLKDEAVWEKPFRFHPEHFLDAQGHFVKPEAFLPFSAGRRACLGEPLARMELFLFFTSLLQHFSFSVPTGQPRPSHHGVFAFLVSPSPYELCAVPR
T2 sequence (P33261 whole entry): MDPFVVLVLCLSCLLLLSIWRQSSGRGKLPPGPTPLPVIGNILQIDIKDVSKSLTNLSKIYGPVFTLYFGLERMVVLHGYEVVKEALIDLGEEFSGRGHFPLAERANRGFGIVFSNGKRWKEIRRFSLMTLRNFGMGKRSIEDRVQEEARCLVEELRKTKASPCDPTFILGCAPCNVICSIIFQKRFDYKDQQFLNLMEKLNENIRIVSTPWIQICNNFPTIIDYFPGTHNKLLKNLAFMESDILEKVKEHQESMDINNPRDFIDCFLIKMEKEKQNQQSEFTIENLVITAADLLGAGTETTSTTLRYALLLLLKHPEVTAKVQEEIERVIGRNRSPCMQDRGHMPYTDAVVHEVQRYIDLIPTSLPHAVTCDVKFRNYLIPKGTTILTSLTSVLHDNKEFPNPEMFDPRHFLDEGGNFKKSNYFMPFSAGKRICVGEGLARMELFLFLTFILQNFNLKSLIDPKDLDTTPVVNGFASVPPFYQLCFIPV

Broadly, the Inhibition is the share of the control response that was lost under treatment. A higher Inhibition goes with a strong effect. What is called IC50 is the concentration that inhibits the measured activity by half. High values mean a need for much substance, low ones inhibition by little substance. As to `CC1CCC2C(C)C(OC(=O)CCC(=O)NCc3nnc(Nc4ccc(F)cc4F)o3)OC3OC4(C)CCC1C32OO4` (stereo not drawn) [A8], in the series with Bcl-2, the “expression of Bcl-2 (in words)” value was “significantly downregulated”. Moreover, the figures for the “proportion of MCF-7 cells with depolarized mitochondria (Q1-LR)” value in the series on MCF-7 cells [1] (2.5 μM), in the series with MCF-7 cells [1] (5 μM) and with MCF-7 cells [1] (10 μM) were 19.45%, 36.90% and 48.70%, respectively. Besides, the “Inhibition at 10 μM (%) CYP2D6” value at CYP2D6 is on record as 0.1%. For the same compound, the IC50 was 7.15 ± 0.95 µM in series [2]; 5.27 ± 0.02 µM in series [5]; 9.71 ± 0.37 µM in series [6]; 4.07 ± 0.05 µM in series [8]; 7.7 ± 0.36 µM in the series with lung cancer A549 cells. The “GSH level (in words)” value in the series with MCF-7 cells [3] is given as “decreased significantly”. Also, the “Inhibition at 10 μM (%) CYP2C19” value on CYP2C19 was determined as 12.3%. The “MDA level (in words)” value in the series with MCF-7 cells [4] is reported as “increased at higher concentrations”. In addition, the “cell colony number (in words)” value in the series on MCF-7 cells [7] (MCF-7, 0, 2.5, 5 and 10 μM) was “decreased in a dose-dependent manner”. For the same compound, in the series with MCF-7 cells [7] (MCF-7, same administration concentration (10 μM)), the “antiproliferative effect in colony formation compared with controls (in words)” value was “better than that of 5-FU and ART”. Besides, the “inhibitory effect on CYP3A4 (in words)” value at CYP3A4 (10 μM) is recorded as “moderate inhibitory effect”. Moreover, the “Inhibition at 10 μM (%) CYP3A4” value on CYP3A4 (human liver microsomes) is 55.8%. Besides, the “expression of Bax (in words)” value in the series with Bax is given as “upregulated”.
